One data set relates to PKK protein. In words: PKK protein in cynomolgus monkey plasma by ELISA (Example 8). The data set is classed as in vivo. As to conditions: 40 mg/kg sc. How it is done: Approximately 0.9 mL of blood was collected each time from all available animals at pre-dose, day 17, day 31, day 45, day 59, and day 73, and placed in tubes containing 3.2% sodium citrate. The tubes were centrifuged (3000 rpm for 10 min at room temperature) to obtain plasma. PKK protein levels were measured in the plasma by ELISA. The results are presented in Table 52, expressed as percentage inhibition compared to the PBS control levels.
For orientation: ELISA stands for enzyme-linked immunosorbent assay.

A further data set deals with thrombus formation. In words: FeCl3 induced mesenteric thrombosis model, platelet aggregation and fibrin formation (Example 21). The class given is in vivo, mouse. As to conditions: Swiss-Webster mice; for Fibrin formation, fluorescent intensity / Platelet aggregation, fluorescent intensity: 80 mg/kg/wk. Here is the method: ISIS 482584 was evaluated in the FeCl3 induced mesenteric thrombosis mouse model.
A group of 6-8 Swiss-Webster mice was treated with 40 mg/kg of ISIS 482584, administered subcutaneously twice a week for 3 weeks (weekly dose of 80 mg/kg). A control group of 6 Swiss-Webster mice was treated with PBS, administered subcutaneously twice a week for 3 weeks. Two days after the last dose of antisense oligonucleotide or PBS, mice from all groups were anesthetized with 75 mg/kg ketamine mixed with 25 mg/kg xylazine, administered by subcutaneous injection.
Rhodamine 6G dye at a dosage of 5 mg/kg was injected subcutaneously to stain platelets. Alexa-647-labeled anti-fibrinogen antibody at a dosage of 1 mg/kg was injected via tail vein injection to stain fibrin. The abdomen was opened by a middle incision. The visceral mesentery was spread on a glass coverslip and the mesenteric arterioles (70-120 μm) were located by observation under a microscope. Thrombus formation was induced by applying of cotton threads (2×0.3 mm) pre-saturated with 6% FeCl3 solution directly on the target vessel. After three minutes of exposure, the thread was removed and the color intensities of both the dyes were recorded by fluorescent microscopy (Olympus FluoView 1000 confocal laser scanning microscope) with appropriate filters for 70 min.
The results for platelet aggregation in the control and treatment groups are presented in Table 83, expressed in arbitrary units (a.u.). […] The results for fibrin formation in the control and treatment groups are presented in Table 84, also expressed in arbitrary units (a.u.).

Data set [1] concerns thrombus formation (platelet factor-4 mRNA). Description: FeCl3-induced inferior vena cava thrombosis model, PF-4 quantification (Example 19). The data set is classed as in vivo, mouse. As to conditions: BALB/c mice; for PF-4 (percentage compared to PBS controls): FeCl3 vena cava. Here is the method:
Three groups of 8 male BALB/c mice were treated with 10 mg/kg, 20 mg/kg, or 40 mg/kg of ISIS 482584, administered subcutaneously twice a week for 3 weeks (weekly doses of 20 mg/kg, 40 mg/kg, or 80 mg/kg). Two control groups of 12 BALB/c mice each were treated with PBS, administered subcutaneously twice a week for 3 weeks. Two days after the last dose of antisense oligonucleotide or PBS, mice from all groups were anesthetized with 150 mg/kg ketamine mixed with 10 mg/kg xylazine, administered by intraperitoneal injection. Thrombus formation was induced with FeCl3 in all groups of anesthetized mice except the first control group.
In mice undergoing FeCl3 treatment, thrombus formation was induced by applying a piece of filter paper (2×4 mm) pre-saturated with 10% FeCl3 solution directly on the vena cava. After 3 minutes of exposure, the filter paper was removed. Thirty minutes after the filter paper application, a fixed length of the vein containing the thrombus was dissected out for platelet analysis. Liver was collected for RNA analysis.
Real-time PCR quantification of platelet factor-4 (PF-4) was used to quantify platelets in the vena cava as a measure of thrombus formation. PF-4 mRNA levels were measured using the murine primer probe set mPF4_LTS_00086 (forward sequence […], designated herein as SEQ ID NO: 2240; reverse sequence CGCAGCGACGCTCATG, designated herein as SEQ ID NO: 2241; probe sequence […], designated herein as SEQ ID NO: 2242). Results are presented as a percentage of PF-4 in ISIS oligonucleotide-treated mice, as compared to the two PBS-treated control groups. […] Therefore, reduction of PKK by the compound provided herein is useful for inhibiting thrombus formation.

Strand notation (5' to 3'): a small letter for the sugar, then the base; units joined by * are phosphorothioate-linked, units joined directly phosphodiester-linked; [ ] holds rarer units or linkages, { } end groups; capitals alone tell only the bases. e = 2'-O-(2-methoxyethyl) (MOE); [5mC] = 5-methylcytosine; d = 2'-deoxy (DNA)

The text below walks through data of patent publication US11840686B2, “Modulation of prekallikrein (PKK) expression” (Ionis Pharmaceuticals, Inc., priority 2013, dated 2023).

For the substance “Tes Ges mCes Aes Aes Gds Tds mCds Tds mCds Tds Tds Gds Gds mCds Aes Aes Aes mCes Ae [ISIS 546254]”, the “PKK protein level reduction (%) in plasma relative to control levels” value in the data set with PKK protein (Day 17) was determined as 38%; in the data set with PKK protein (Day 31), 51%; with PKK protein (Day 45) it was 63%; in the data set with PKK protein (Day 59), 74%; in the data set with PKK protein (Day 73) it was 73%.

Regarding “ISIS 482584: 5-10-5 MOE gapmer targeting murine PKK, GGCATATTGGTTTTTGGAAT; SEQ ID NO: 2244 (antisense eG*eG*e[5mC]*eA*eT*dA*dT*dT*dG*dG*dT*dT*dT*dT*dT*eG*eG*eA*eA*eT)”, the “Fibrin formation, fluorescent intensity” value in the data set with thrombus formation (time 752 sec) is 54 a.u; in the data set with thrombus formation (time 1018 sec) it was 7 a.u; in the data set with thrombus formation (time 1284 sec), 1 a.u; in the data set on thrombus formation (time 1550 sec) it was 10 a.u; in the data set with thrombus formation (time 1815 sec), 16 a.u; in the data set with thrombus formation (time 2081 sec), 15 a.u. For the same substance, the “Fibrin formation, fluorescent intensity” value in the data set on thrombus formation (time 2347 sec) worked out at 61 a.u; with thrombus formation (time 2613 sec), 88 a.u; with thrombus formation (time 2879 sec), 141 a.u; with thrombus formation (time 3144 sec), 150 a.u; in the data set on thrombus formation (time 3410 sec) it was 173 a.u; in the data set with thrombus formation (time 3676 sec), 160 a.u. In addition, in the data set on thrombus formation (time 3944 sec), the “Fibrin formation, fluorescent intensity” value is 128 a.u. Further, the “Platelet aggregation, fluorescent intensity” value in the data set with thrombus formation (time 752 sec) came out at 74 a.u; in the data set with thrombus formation (time 1018 sec), 11 a.u; in the data set with thrombus formation (time 1284 sec), 7 a.u; in the data set with thrombus formation (time 1550 sec) it was 0 a.u; with thrombus formation (time 1815 sec), 0 a.u; in the data set on thrombus formation (time 2081 sec), 0 a.u. The “Platelet aggregation, fluorescent intensity” value in the data set with thrombus formation (time 2347 sec) worked out at 0 a.u; in the data set on thrombus formation (time 2613 sec) it was 38 a.u; in the data set with thrombus formation (time 2879 sec), 148 a.u; with thrombus formation (time 3144 sec), 129 a.u; in the data set on thrombus formation (time 3410 sec), 169 a.u; in the data set on thrombus formation (time 3676 sec), 131 a.u. Moreover, the “Platelet aggregation, fluorescent intensity” value in the data set on thrombus formation (time 3944 sec) worked out at 87 a.u. Besides, in the data set on thrombus formation (80 mg/kg/week, vs PBS), the “fibrin formation” value was “Fibrin formation was reduced”. Besides, in the data set with thrombus formation (80 mg/kg/week, vs PBS), the “platelet aggregation” value is recorded as “Platelet aggregation was reduced”. Also, the “PF-4 (percentage compared to PBS controls)” value in data set [1] (20 mg/kg/wk sc 3 weeks) came out at 62%; in data set [1] (40 mg/kg/wk sc 3 weeks), 34%; in data set [1] (80 mg/kg/wk sc 3 weeks) it was 25%. In addition, the “PF-4 in vena cava” value in data set [1] (10-40 mg/kg s.c. twice a week for 3 weeks, vs PBS control) is on record as “significant reduction of PF-4”.
